The source of these data is patent publication US11845748B2, “Bicyclic pyridine N-oxide derivatives useful as a factor XIa inhibitors” (Janssen Pharmaceutica NV, priority 2021, dated 2023).

In one assay the target is Factor XIa (Homo sapiens, UniProt P03951). Put plainly: Factor XIa inhibition assay utilizing a fluorophore-quencher pair peptide substrate (FLINT). Format: biochemical. The conditions noted are these: kinetic reads at 5 min intervals over 30 min; 30 min preincubation; 5Fam-KLTRAETV-K5Tamra substrate; read-out: FXIa (KIN) IC50. The source says: Biological Example 1: Factor XIa Inhibition Assay Utilizing a Fluorophore-Quencher Pair Peptide Substrate
A fluorescence intensity (FLINT) based assay was used to monitor inhibition of Factor XIa. The peptide substrate, 5Fam-KLTRAETV-K5Tamra (purchased from New England Peptide) was chosen based on the […]. Conversion of zymogen […]. The custom peptide used in this assay was based on the Arg146 cleavage site of FXI. The peptide substrate was designed with a fluorophore-quencher pair, where the fluorescence is quenched until FXIa cleaves the 8-mer peptide after the Arg residue. The substrate KM was fit to a substrate inhibition model whereby kcat=0.86 s^−1, KM=12.4 μM, Ki=61.6 μM with an enzymatic efficiency, and kcat/KM=69523 M^−1s^−1.
The Factor XIa FLINT assay was used with the following 5Fam-KLTRAETV-K5Tamra assay buffer: 50 mM Tris, pH 7.5, 100 mM NaCl, 5 mM CaCl2, 0.1 mg/mL BSA, 0.03% CHAPS. Assay buffer was prepared by mixing all ingredients fresh. 5Fam-KLTRAETV-K5Tamra peptide substrate was first prepared at 10 mM in 100% DMSO, then diluted to 3 mM in 100% DMSO. Assay buffer was then added directly to the 3 mM stock of substrate to prepare the 30 μM 2× working concentration (15 μM final concentration). The 2× Factor XIa stock solution was prepared by diluting 6.562 μM stock in 1× assay buffer for a 200 pM working stock solution (100 pM final concentration).
Test compound(s) were run in an 11-point, 3-fold serial dilution with a final top compound concentration of 100 nM. Final DMSO in assay was 2%. FXIa was preincubated with compound for 30-minutes and then substrate was added to initiate the reaction. The assay was run with either end point (EP) reads at 30 min or kinetic (KIN) reads at 5 min intervals over 30 minutes. The time course was linear using 100 μM FXIa greater than 30 minutes. More specifically, the assay was run as follows: • 100 nL of 0.01 mM test compound was dispensed into black 384-well non-binding Greiner BioOne 784900 plate for 0.1 μM final concentration; • 5 μL of 1× assay buffer was dispensed to column 24 (low control) and 5 μL 2× Factor XIa solution was dispensed to columns 1-23 (column 23 high control); • the plate was centrifuged with a “cover” plate at 500 rpm for 1 min the plate was pre-incubated for 30 minutes at room temperature with plate covered; • 5 μL of 2× 5Fam-KLTRAETV-K5Tamra peptide substrate was dispensed into the entire plate, columns 1-24; • the plate was centrifuged with a “cover” plate at 500 rpm for 1 min; • the plate was read monitoring fluorescence intensity on the BMG PHERAStar at room temperature, using fluorescence module 485 nm/520 nm.
Percent inhibition (IC50) curves were generated per compound tested, and data was analyzed using a 4-parameter logistic fit using GeneData Screener. The relative fluorescence unit (RFU) values were normalized to percent inhibition using the following equation: % inhibition=((HC−LC)−(compound−LC)/(HC−LC))*100 where LC—low control=mean signal of no Factor XIa or 100% inhibition of Factor XIa; HC—high control=mean signal of Factor XIa+5Fam-KLTRAETV-K5Tamra peptide substrate with DMSO only.
(§1) An 11-point dose response curve for the test compound(s) was generated using GENDATA to determine IC50 value based on the following equation: Y=Bottom+(Top−Bottom)/(1+10^((log IC50−X)*HillSlope))
where Y is the % inhibition in the presence of X inhibitor concentration, Top=high control=mean signal of Factor XIa+5Fam-KLTRAETV-K5Tamra peptide substrate with DMSO only; Bottom=low control−mean signal of no Factor XIa or 100% inhibition of Factor XIa; HillSlope—Hill coefficient; and IC50=concentration of compound with 50% inhibition in relation to top/high control. […]

The next assay has as its target human plasma kallikrein (Homo sapiens, UniProt P03952). Description: Kallikrein inhibition assay utilizing a quenched AMC peptide substrate (FLINT). Format: biochemical. The note with it: kinetic reads at 5 min intervals over 30 min; 30 min preincubation; Z-Gly-Pro-Arg-AMC substrate; read-out: Kallikrein (KIN) IC50. How it is done:
Biological Example 2: Kallikrein Inhibition Assay Utilizing a Quenched AMC Peptide Substrate
A fluorescence intensity (FLINT) based assay was used to monitor inhibition of human plasma kallikrein. The peptide substrate, Z-Gly-Pro-Arg-AMC (Purchased from Bachem; Catalog #I-1150) was chosen based on its relatively low KM for kallikrein which enables running the assay at lower substrate concentrations to control background fluorescence. The kinetic parameters for this substrate were determined by fitting titration data to the Michaelis-Menten equation yielding a KM=40 μM, kcat=0.76 s^−1, and kcat/KM=18932 M^−1s^−1.
The Kallikrein FLINT assay was used with the following Z-Gly-Pro-Arg-AMC assay buffer: 50 mM Tris, pH 7.5, 100 mM NaCl, 5 mM CaCl2, 0.1 mg/mL BSA, 0.03% CHAPS. Assay buffer was prepared by mixing all ingredients fresh. 2× Z-Gly-Pro-Arg-AMC peptide substrate was prepared by diluting 10 mM stock into 1× assay buffer for a 100 μM working concentration (50 μM final concentration). The 2× kallikrein stock solution was prepared by diluting 14.76 μM stock in 1× assay buffer for a 4 nM working stock solution (2 nM final concentration).
Test compound(s) were run in an 11-point, 3-fold serial dilution with a final top compound concentration of 1 μM. Final DMSO in assay was 2%. Plasma kallikrein was pre-incubated for 30-minute with compound and then 50 μM substrate was added to initiate the reaction. The assay was run with kinetic (KIN) reads at 5 min intervals over 30 minutes. The time course was linear using 2 nM kallikrein greater than 30 minutes. More specifically, the assay was run as follows: • 100 nL of 0.1 mM test compound was dispensed into black 384-well non-binding Greiner BioOne 784900 plate for 1 μM final concentration; • 5 μL of 1× assay buffer was dispensed to columns 24 (low control) and 5 μL 2× human kallikrein enzyme solution was dispensed to columns 1-23 (column 23 high control); • the plate was centrifuged with a “cover” plate at 500 rpm for 1 min the plate was pre-incubated for 30 minutes at room temperature with plate covered; • 5 μL of 2× Z-Gly-Pro-Arg-AMC peptide substrate was dispensed into the entire plate, columns 1-24; • the plate was centrifuged with a “cover” plate at 500 rpm for 1 min; • the plate was read monitoring fluorescence intensity on the BMG PHERAStar at room temperature, using fluorescence module 340 nm/440 nm.
Percent inhibition (IC50) curves were generated per compound tested, and data was analyzed using a 4-parameter logistic fit using GeneData Screener. The relative fluorescence unit (RFU) values were normalized to percent inhibition using the following equation: % inhibition=((HC−LC)−(compound−LC)/(HC−LC))*100
where LC—low control=mean signal of […] 100% inhibition of human kallikrein enzyme; HC—high control=mean signal of […]+Z-Gly-Pro-Arg-AMC peptide substrate with DMSO only.
as §1
where Y is the % inhibition in the presence of X inhibitor concentration, Top=high control=mean signal of human kallikrein enzyme+Z-Gly-Pro-Arg-AMC peptide substrate with DMSO only; Bottom=low control−mean signal of no human kallikrein enzyme or 100% inhibition of human kallikrein enzyme; HillSlope—Hill coefficient; and IC50=concentration of compound with 50% inhibition in relation to top/high control.
Representative compounds of formula (I) of the present invention were tested according to the procedure described in Biological Example 1 and Biological Example 2 above, with results as listed in Table 2, below. Results listed in the (ER) column were measured using endpoint reads where a single fluorescence reading was measured for each well at a 30 min timepoint. […]

A value given as a limit tells only on which side of the number the result lay.

Sequence of Factor XIa (P03951 388-625 limits assumed): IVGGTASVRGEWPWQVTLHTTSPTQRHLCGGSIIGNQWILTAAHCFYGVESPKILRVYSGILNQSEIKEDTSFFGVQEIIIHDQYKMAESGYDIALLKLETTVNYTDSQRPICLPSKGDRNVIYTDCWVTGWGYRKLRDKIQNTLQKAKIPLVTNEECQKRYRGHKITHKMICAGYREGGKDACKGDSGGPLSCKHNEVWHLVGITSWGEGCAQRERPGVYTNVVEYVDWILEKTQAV
Sequence of Factor XIa (P03951 19-387 partner limits assumed): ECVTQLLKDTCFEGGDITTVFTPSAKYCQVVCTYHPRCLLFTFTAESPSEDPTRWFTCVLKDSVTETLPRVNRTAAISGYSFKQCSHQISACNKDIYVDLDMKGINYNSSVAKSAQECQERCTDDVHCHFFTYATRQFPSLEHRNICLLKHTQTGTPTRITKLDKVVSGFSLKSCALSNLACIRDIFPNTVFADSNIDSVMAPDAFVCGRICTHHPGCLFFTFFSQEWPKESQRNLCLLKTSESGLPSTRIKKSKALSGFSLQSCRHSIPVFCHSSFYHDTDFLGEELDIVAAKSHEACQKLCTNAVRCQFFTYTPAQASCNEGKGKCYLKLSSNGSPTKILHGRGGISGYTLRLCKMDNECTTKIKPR
Sequence of human plasma kallikrein (P03952 391-638 limits assumed): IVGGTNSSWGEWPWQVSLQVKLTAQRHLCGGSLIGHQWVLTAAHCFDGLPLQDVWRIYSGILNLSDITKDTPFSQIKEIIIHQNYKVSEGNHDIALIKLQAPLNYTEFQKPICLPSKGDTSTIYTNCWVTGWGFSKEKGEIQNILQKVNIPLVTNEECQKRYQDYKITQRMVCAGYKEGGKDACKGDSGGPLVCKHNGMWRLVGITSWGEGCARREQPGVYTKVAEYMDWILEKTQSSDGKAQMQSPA
Sequence of human plasma kallikrein (P03952 20-390 partner limits assumed): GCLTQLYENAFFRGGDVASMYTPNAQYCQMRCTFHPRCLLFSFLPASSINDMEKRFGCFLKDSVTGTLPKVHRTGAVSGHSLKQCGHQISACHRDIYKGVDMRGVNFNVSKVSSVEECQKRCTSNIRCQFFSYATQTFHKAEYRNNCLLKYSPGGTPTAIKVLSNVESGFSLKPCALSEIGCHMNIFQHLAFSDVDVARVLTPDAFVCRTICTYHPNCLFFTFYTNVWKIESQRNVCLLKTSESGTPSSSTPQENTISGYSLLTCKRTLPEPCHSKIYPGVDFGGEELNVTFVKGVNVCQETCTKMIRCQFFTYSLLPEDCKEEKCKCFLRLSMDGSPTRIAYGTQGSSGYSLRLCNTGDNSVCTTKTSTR

What is called IC50 is the concentration needed to halve the response being measured. With `O=C(Nc1ccc(-c2cnn(C3CCc4cc(-c5c(-n6cnnn6)ccc(Cl)c5F)c[n+]([O-])c43)c2)cc1)C1CC1` (racemic) [ID No. 16, 3-(3-Chloro-2-fluoro-6-(1H-tetrazol-1-yl)phenyl)-7-(4-(4-(cyclopropanecarboxamido)phenyl)-1H-pyrazol-1-yl)-6,7-dihydro-5H-cyclopenta[b]pyridine 1-oxide], the values for the half-maximal inhibitory concentration (IC50) on Factor XIa and on human plasma kallikrein were 25 nM and 316 nM, respectively.

In the case of `Nc1ccc(-c2cnn(C3CCc4cc(-c5c(-n6cnnn6)ccc(Cl)c5F)c[n+]([O-])c43)c2)c(Cl)n1` (racemic) [ID No. 17, 7-(4-(6-Amino-2-chloropyridin-3-yl)-1H-pyrazol-1-yl)-3-(3-Chloro-2-fluoro-6-(1H-tetrazol-1-yl)phenyl)-6,7-dihydro-5H-cyclopenta[b]pyridine 1-oxide], the IC50 on Factor XIa came to 5 nM; on human plasma kallikrein it was 432 nM.

Turning to `O=C(NC1CC1)c1ccc(-c2cnn(C3CCc4cc(-c5c(-n6cnnn6)ccc(Cl)c5F)c[n+]([O-])c43)c2)cc1` (racemic) [ID No. 18, 3-(3-Chloro-2-fluoro-6-(1H-tetrazol-1-yl)phenyl)-7-(4-(4-(cyclopropylcarbamoyl)phenyl)-1H-pyrazol-1-yl)-6,7-dihydro-5H-cyclopenta[b]pyridine 1-oxide], the results for the IC50 on Factor XIa and on human plasma kallikrein were 282 nM and 1090 nM, respectively.

For `Cn1ncc(-c2cnn(C3CCc4cc(-c5c(-n6cnnn6)ccc(Cl)c5F)c[n+]([O-])c43)c2)cc1=O` (racemic) [ID No. 19, 3-(3-Chloro-2-fluoro-6-(1H-tetrazol-1-yl)phenyl)-7-(4-(1-methyl-6-oxo-1,6-dihydropyridazin-4-yl)-1H-pyrazol-1-yl)-6,7-dihydro-5H-cyclopenta[b]pyridine 1-oxide], the values for the concentration for half-maximal inhibition (IC50) on Factor XIa and on human plasma kallikrein were 1170 nM and 6360 nM, respectively.

As to `Cn1c(-c2cnn(C3CCc4cc(-c5c(-n6cnnn6)ccc(Cl)c5F)c[n+]([O-])c43)c2)cccc1=O` (racemic) [ID No. 20, 3-(3-Chloro-2-fluoro-6-(1H-tetrazol-1-yl)phenyl)-7-(4-(1-methyl-6-oxo-1,6-dihydropyridin-2-yl)-1H-pyrazol-1-yl)-6,7-dihydro-5H-cyclopenta[b]pyridine 1-oxide], the IC50 was 3110 nM on Factor XIa and above 10000 nM on human plasma kallikrein.

For `Cc1cc(-c2cnn(C3CCc4cc(-c5c(-n6cnnn6)ccc(Cl)c5F)c[n+]([O-])c43)c2)ccn1` (racemic) [ID No. 23, 3-(3-Chloro-2-fluoro-6-(1H-tetrazol-1-yl)phenyl)-7-(4-(2-methylpyridin-4-yl)-1H-pyrazol-1-yl)-6,7-dihydro-5H-cyclopenta[b]pyridine 1-oxide], the IC50 at Factor XIa was 32 nM; on human plasma kallikrein, 393 nM.

As for `[O-][n+]1cc(-c2c(-n3cnnn3)ccc(Cl)c2F)cc2c1C(n1cc(-c3ccnc(C4CC4)c3)cn1)CC2` (racemic) [ID No. 24, 3-(3-Chloro-2-fluoro-6-(1H-tetrazol-1-yl)phenyl)-7-(4-(2-cyclopropylpyridin-4-yl)-1H-pyrazol-1-yl)-6,7-dihydro-5H-cyclopenta[b]pyridine 1-oxide], the concentration for half-maximal inhibition (IC50) at Factor XIa came to 40 nM; on human plasma kallikrein, 70 nM.

Take `CC(=O)Nc1ccc(-c2cnn(C3CCCc4cc(-c5c(-n6cnnn6)ccc(Cl)c5F)c[n+]([O-])c43)c2)c(F)n1` (racemic) [ID No. 29, 8-(4-(6-Acetamido-2-fluoropyridin-3-yl)-1H-pyrazol-1-yl)-3-(3-chloro-2-fluoro-6-(1H-tetrazol-1-yl)phenyl)-5,6,7,8-tetrahydroquinoline 1-oxide]: the half-inhibitory concentration (IC50) at Factor XIa amounted to 765 nM; at human plasma kallikrein it was 8480 nM.

In the case of `Nc1nc(F)c(-c2cnn(C3CCCc4cc(-c5c(-n6cnnn6)ccc(Cl)c5F)c[n+]([O-])c43)c2)cc1Cl` (racemic) [ID No. 30, 8-(4-(6-Amino-5-chloro-2-fluoropyridin-3-yl)-1H-pyrazol-1-yl)-3-(3-chloro-2-fluoro-6-(1H-tetrazol-1-yl)phenyl)-5,6,7,8-tetrahydroquinoline 1-oxide], the results for the IC50 on Factor XIa and at human plasma kallikrein were 1260 nM and 2880 nM, respectively.

For `Nc1ccc(-c2cnn(C3CCc4cc(-c5c(-n6cnnn6)ccc(Cl)c5F)c[n+]([O-])c43)c2)c(Cl)n1` (single isomer, unassigned) [ID No. 21, (R*)-7-(4-(6-Amino-2-chloropyridin-3-yl)-1H-pyrazol-1-yl)-3-(3-chloro-2-fluoro-6-(1H-tetrazol-1-yl)phenyl)-6,7-dihydro-5H-cyclopenta[b]pyridine 1-oxide], the values for the 50% inhibitory concentration (IC50) at Factor XIa and on human plasma kallikrein were 2380 nM and above 10000 nM, respectively.

With `Nc1ccc(-c2cnn(C3CCc4cc(-c5c(-n6cnnn6)ccc(Cl)c5F)c[n+]([O-])c43)c2)c(Cl)n1` (single isomer, unassigned) [ID No. 22, (S*)-7-(4-(6-Amino-2-chloropyridin-3-yl)-1H-pyrazol-1-yl)-3-(3-chloro-2-fluoro-6-(1H-tetrazol-1-yl)phenyl)-6,7-dihydro-5H-cyclopenta[b]pyridine 1-oxide], the results for the half-maximal inhibitory concentration (IC50) on Factor XIa and on human plasma kallikrein were 3 nM and 176 nM, respectively.
